The record followed here is ChEMBL document CHEMBL1131730, “Isolation and characterization of an active-site peptide from a sterol methyl transferase with a mechanism-based inhibitor” (Bioorg Med Chem Lett, 1999).

Data set [1] is described as follows: (§1) Rate of inactivation of sterol methyl transferase from Saccharomyces cerevisiae using mechanism based inhibitor.
The next data set relates to Saccharomyces cerevisiae. The description is as §1. The class given is organism-based. Particulars: in vivo.

Consider `CC(C)C(C)CC[C@@H](C)C1CCC2C3=C(CCC21C)C1(C)CCC(O)CC1CC3` (some centres not stated), for which the Ki in data set [1] is 1100 nM. The same molecule yielded a Ki inact with Saccharomyces cerevisiae of 1.52 min⁻¹.
